Source: paper PMC5917010, “Structural basis for GPR40 allosteric agonism and incretin stimulation” (Nature Communications, 2018)
pKi: −log10 of the molar value.

Assays:
[1] = tested on: wild type ICR mice; test: Intraperitoneal glucose tolerance test (IPGTT) in wild type ICR mice; type: in vivo, mouse; conditions: various oral doses
Method: (§1) Nine to ten week old male ICR mice (Envigo) and GPR40 KO mice (Taconic) were used. The day before an IPGTT (~1600), animals were fasted in clean cages. The following morning (~0800), animals were randomized on fasting glucose and body weight (N = 6 per group). Mice were orally administered a test article or vehicle 60 min prior to an intraperitoneal (IP) injection of glucose (2g/kg). Blood glucose levels were determined by a glucometer from tail bleeds taken at 0, 15, 30, 60, and 120 min after the glucose challenge. An average of two readings were reported at each time point. Also, blood samples were collected into serum tubes at 0, 3, 6, and 15 min post glucose injection for insulin measurement. Serum tubes were centrifuged at 3000g for 5 min and serum transferred into 96-well plates for insulin analysis by a Mesoscale rat/mouse insulin assay.

[2] = tested on: GPR40 knock-out (KO) mice; test: IPGTT in GPR40 knock-out mice; type: in vivo, mouse; conditions: high dose of compound 1
Method: as §1

[3] = tested on: GPR40 KO mice; test: Incretin secretion assay in GPR40 KO mice; type: in vivo, mouse
[4] = target: hRORgamma (Homo sapiens, UniProt P51449); test: hRORgamma binding
Sequence of hRORgamma (P51449 whole entry): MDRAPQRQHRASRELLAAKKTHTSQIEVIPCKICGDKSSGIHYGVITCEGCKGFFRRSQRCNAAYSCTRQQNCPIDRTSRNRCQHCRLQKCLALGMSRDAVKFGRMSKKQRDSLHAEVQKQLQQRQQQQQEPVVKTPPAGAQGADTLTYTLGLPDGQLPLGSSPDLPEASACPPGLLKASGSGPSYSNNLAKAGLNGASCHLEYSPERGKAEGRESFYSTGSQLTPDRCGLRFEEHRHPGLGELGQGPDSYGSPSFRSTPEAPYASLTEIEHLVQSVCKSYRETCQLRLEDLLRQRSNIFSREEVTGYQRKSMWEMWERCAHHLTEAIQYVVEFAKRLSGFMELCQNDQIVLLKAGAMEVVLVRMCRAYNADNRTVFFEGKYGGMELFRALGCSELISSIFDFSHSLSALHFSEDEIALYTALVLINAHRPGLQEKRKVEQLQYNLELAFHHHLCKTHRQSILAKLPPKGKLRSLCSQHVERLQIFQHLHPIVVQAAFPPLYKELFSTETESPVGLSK

[5] = Dog hepatocyte clearance; type: in vitro ADME; conditions: hepatocytes
[6] = Rat hepatocyte clearance; type: in vitro ADME; conditions: hepatocytes
[7] = Drug exposure in plasma after oral dose in wild type C57BL/6 mice; type: in vivo, mouse; conditions: 0.03-10 mpk, Supplementary Fig. 9
[8] = tested on: GPCRs (including GPR120), NHRs and Kinases; test: Selectivity panels against GPCRs, NHRs and Kinases

COc1ccc(C(=O)N(CC(C)(C)C)c2cccc(C)n2)c(N2CCC(c3cc4ccc([C@@H](CC(=O)O)C5CC5)cc4o3)CC2)c1 [compound 1]
glucose excursion in IPGTT [1]: decreases in glucose excursion
insulin secretion in IPGTT [1]: Dose-dependent increases in insulin secretion
glucose lowering in IPGTT, GPR40 KO [2]: not observed
insulin secretion in IPGTT, GPR40 KO [2]: not observed
plasma active GIP concentrations, GPR40 KO [3]: no effect
plasma total GLP-1 concentrations, GPR40 KO [3]: no effect
pKi [4]: < 4.70
recovery ([5]; no ABT, read-out: Dog Hepatocyte Clearance no ABT % Recovery): 103%
hepatocyte CLint ([5]; no ABT, read-out: Dog Hepatocyte Clearance no ABT Intrinsic Clearance): 31.4 µL/min/1e6 cells
recovery ([5]; with ABT (concentration not stated), read-out: Dog Hepatocyte Clearance ABT % Recovery): 92.8%
hepatocyte CLint ([5]; with ABT, read-out: Dog Hepatocyte Clearance ABT Intrinsic Clearance): 19.3 µL/min/1e6 cells
recovery ([6]; no ABT, read-out: Rat Hepatocyte Clearance no ABT % Recovery): 103%
hepatocyte CLint ([6]; no ABT, read-out: Rat Hepatocyte Clearance no ABT Intrinsic Clearance): 12.2 µL/min/1e6 cells
recovery ([6]; with ABT (concentration not stated), read-out: Rat Hepatocyte Clearance ABT % Recovery): 92.8%
hepatocyte CLint ([6]; with ABT, read-out: Rat Hepatocyte Clearance ABT Intrinsic Clearance): 3 µL/min/1e6 cells
pharmacokinetics in mouse (drug exposures in plasma) [7]: dose proportional
selectivity in selectivity panels [8]: highly selective
